Reference: patent publication US20210395256A1, “TYROSINE KINASE INHIBITORS, COMPOSITIONS AND METHODS THERE OF” (Betta Pharmaceuticals Co., Ltd., priority 2018, published 2021)
Like-named read-outs stand apart in the source and are kept apart here.

Experiments:
Ba/F3-TPM3-NTRK1 = molecular target: T1, Ba/F3-TPM3-NTRK1 (Homo sapiens, UniProt P04629); test: Ba/F3-TPM3-NTRK1 cells proliferation assay; assay type: cell-based; conditions: 72 h, CellTiter Glo
T1 construct: expressed in transfected cells; host or cells: Ba/F3; the other entry of the earlier key: TPM3 (P06753, Tropomyosin alpha-3 chain)
Protocol: (§1) Example 202 Ba/F3-TPM3-NTRK1 and Ba/F3-ETV6-NTRK3 cells proliferation assay
(§2) Cell line: Ba/F3 cells with TPM3-NTRK1 or ETV6-NTRK3 fusion mutation gene stably overexpressed named Ba/F3-TPM3-NTRK1 and Ba/F3-ETV6-NTRK3.
(§3) RPMI 1640 and 10% FBS and 1% PS and 2 ug/mL puromycin.
(§4) b) Collect cell to a 15 mL centrifuged tube, centrifuge at 1000 rpm for 5 min. Discard the supernatant, count, and make the cell density at 1.49×10^4 cells/mL, then place it in a 37° C., 5% CO2 incubator.
(§5) a) The test compound (20 mM stock solution) was diluted to 60 μM with 100% DMSO as starting concentration then 3-fold serial diluted with “9+0” concentrations. in a 96-well dilution plate (Thermo, Cat. No. 249944);
(§6) b) The above compound solution was diluted 1:20 times with culture medium to prepare a 10 fold working solution;
(§7) a) Take cells in log phase growth, centrifuge at 1000 rpm for 5 min, then resuspend the cells with culture medium, then count cells;
(§8) b) Cells were seeded to 96-well cell culture plate with density at 2000 cells/well;
(§9) a) Compounds prepared at step 2 were added to cell plate with 15 μL per well, the final concentrations were 300, 100, 33.33, 11.11, 3.70, 1.23, 0.41, 0.14, 0.05 and 0 nM, and the final concentration of DMSO was 0.5%. The blank control well was a culture medium (0.5% DMSO);
(§10) c) The cells were incubated for an additional 72 h in the incubator.
(§11) a) Remove the 96-well cell culture plate and add 50 μl of CTG reagent (CellTiter Glo kit, promega, Cat #G7573).
(§12) b) Plate was shaked for 2 min and then let it cool for 30 min at room temperature.
(§13) c) The Luminescence signal value was read using a PerkinElmer reader.
(§14) Experimental Data Analysis
(§15) Data were analyzed using GraphPad Prism 6.0 software to obtain a fitted curve of compound activity.
(§16) Fit the Compound IC50 from non-linear regression equation:
(§17) Y=Bottom+(Top-Bottom)/(1+10^((Log IC50-X)×HillSlope));
(§18) X: The log of the concentration of the compound; Y: Luminescence value.

TrkA kinase = TrkA kinase (Homo sapiens, UniProt P04629); test: TrkA kinase assay (mobility shift assay); assay type: biochemical; conditions: read-out: Trk A Kinase IC50
How it was run: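 Ten-point compound series was preincubated 10 min at room temperature with TrkA, then FAM-peptide plus ATP added in HEPES pH 7.5/Brij-35 buffer and reacted at 28 °C before EDTA quench.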

Ba/F3-ETV6-NTRK3 = molecular target: T2, Ba/F3-ETV6-NTRK3 (Homo sapiens, UniProt Q16288); test: Ba/F3-ETV6-NTRK3 cells proliferation assay; assay type: cell-based; conditions: 72 h, CellTiter Glo
T2 construct: Ba/F3 cells with TPM3-NTRK1 or ETV6-NTRK3 fusion mutation gene stably overexpressed named Ba/F3-TPM3-NTRK1 and Ba/F3-ETV6-NTRK3; fused on or other part: P41212 (Transcription factor ETV6)
Protocol: as §1, §2, §3, §4, §5, §6, §7, §8, §9, §10, §11, §12, §13, §14, §15, §16, §17, §18

[1] = Liver microsomes metabolic stability assay, human; assay type: in vitro ADME; conditions: human liver microsomes 0.5 mg/mL, 37° C.
Protocol: (§19) Example 203 Liver Microsomes Metabolic Stability Assay
(§20) Pooled human liver microsomes (Cat. 452117) were purchased from Corning. Pooled male rat liver microsomes (Cat. R1000) and pooled male mouse liver microsomes (Cat. M1000) were purchased from XENOTECH. Microsomes were stored at −80° C.
(§21) 1) Make a master solution containing phosphate buffer, ultra-pure H2O and MgCl2 solution according to Table 14.
(§22) 2) Two separated experiments were performed as follows.
(§23) a) With NADPH: 10 μL of 20 mg/mL liver microsomes and 40 μL of 10 mM NADPH were added to the incubations. The final concentrations of microsomes and NADPH were 0.5 mg/mL and 1 mM, respectively.
(§24) b) Without NADPH: 10 μL of 20 mg/mL liver microsomes and 40 μL of ultra-pure H2O were added to the incubations. The final concentration of microsomes was 0.5 mg/mL.
(§25) 3) The reaction was started with the addition of 4 μL test compounds solutions or control compound solution (verapamil) at the final concentration of 2 μM and carried out at 37° C.
(§26) 4) Aliquots of 50 μL were taken from the reaction solution at 0, 15, 30, 45 and 60 min. The reaction solutions were stopped by the addition of 4 volumes of cold acetonitrile with 1S (100 nM alprazolam, 200 nM caffeine, 200 nM labetalol and 2 μM ketoprofen). Samples were centrifuged at 3,220 g for 40 minutes. Aliquot of 100 μL of the supernatant was mixed with 100 μL of ultra-pure H2O and then used for LC-MS/MS analysis. All experiments were performed in duplicate.
(§27) The slope value, k, was determined by linear regression of the natural logarithm of the remaining percentage of the parent drug vs. incubation time curve.
(§28) The in vitro half-life (in vitro t1/2) was determined from the slope value:
(§29) Conversion of the in vitro t1/2 (in min) into the in vitro intrinsic clearance (in vitro CLint, in μL/min/mg proteins) was done using the following equation (mean of duplicate determinations): […]
(§30) The control compound (verapamil) was included in the assay. Any value of the compounds that was not within the specified limits will be rejected and the experiment will be repeated.

[2] = Liver microsomes metabolic stability assay, rat; assay type: in vitro ADME; conditions: rat liver microsomes 0.5 mg/mL, 37° C.
Protocol: as §19, §20, §21, §22, §23, §24, §25, §26, §27, §28, §29, §30

[3] = Liver microsomes metabolic stability assay, mouse; assay type: in vitro ADME; conditions: mouse liver microsomes 0.5 mg/mL, 37° C.
Protocol: as §19, §20, §21, §22, §23, §24, §25, §26, §27, §28, §29, §30

T2 sequence (Q16288 whole entry, the tested form may be a part): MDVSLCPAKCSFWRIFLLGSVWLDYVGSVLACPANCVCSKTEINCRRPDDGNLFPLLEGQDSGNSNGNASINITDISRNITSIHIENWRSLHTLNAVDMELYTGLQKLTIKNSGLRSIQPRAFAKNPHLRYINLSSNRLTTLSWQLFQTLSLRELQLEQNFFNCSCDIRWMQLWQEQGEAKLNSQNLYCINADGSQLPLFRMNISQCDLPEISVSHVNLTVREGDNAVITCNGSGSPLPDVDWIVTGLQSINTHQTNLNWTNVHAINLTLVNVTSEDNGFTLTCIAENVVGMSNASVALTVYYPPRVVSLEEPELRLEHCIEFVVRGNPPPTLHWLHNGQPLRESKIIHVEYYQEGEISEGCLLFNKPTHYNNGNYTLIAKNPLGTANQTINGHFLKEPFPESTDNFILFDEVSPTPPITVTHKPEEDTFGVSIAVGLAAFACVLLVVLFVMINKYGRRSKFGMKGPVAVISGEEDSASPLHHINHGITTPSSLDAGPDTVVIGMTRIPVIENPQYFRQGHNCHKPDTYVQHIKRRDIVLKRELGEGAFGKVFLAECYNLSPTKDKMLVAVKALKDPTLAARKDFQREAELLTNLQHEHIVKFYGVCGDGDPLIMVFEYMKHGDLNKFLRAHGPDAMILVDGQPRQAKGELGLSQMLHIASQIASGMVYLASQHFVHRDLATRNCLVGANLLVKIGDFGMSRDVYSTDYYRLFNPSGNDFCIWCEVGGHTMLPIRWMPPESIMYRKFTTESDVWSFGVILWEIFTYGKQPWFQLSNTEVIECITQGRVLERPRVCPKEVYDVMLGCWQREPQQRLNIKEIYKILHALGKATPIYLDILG
T1 sequence (P04629 510-796 limits assumed): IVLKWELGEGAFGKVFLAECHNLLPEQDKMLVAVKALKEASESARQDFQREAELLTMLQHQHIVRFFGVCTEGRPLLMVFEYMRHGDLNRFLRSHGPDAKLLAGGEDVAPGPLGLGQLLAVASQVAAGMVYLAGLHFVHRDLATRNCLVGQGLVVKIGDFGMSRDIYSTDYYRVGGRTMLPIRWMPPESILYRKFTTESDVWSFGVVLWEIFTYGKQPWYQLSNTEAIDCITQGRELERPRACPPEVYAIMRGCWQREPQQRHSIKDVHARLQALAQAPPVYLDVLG
Chain of TrkA kinase (P04629 33-796): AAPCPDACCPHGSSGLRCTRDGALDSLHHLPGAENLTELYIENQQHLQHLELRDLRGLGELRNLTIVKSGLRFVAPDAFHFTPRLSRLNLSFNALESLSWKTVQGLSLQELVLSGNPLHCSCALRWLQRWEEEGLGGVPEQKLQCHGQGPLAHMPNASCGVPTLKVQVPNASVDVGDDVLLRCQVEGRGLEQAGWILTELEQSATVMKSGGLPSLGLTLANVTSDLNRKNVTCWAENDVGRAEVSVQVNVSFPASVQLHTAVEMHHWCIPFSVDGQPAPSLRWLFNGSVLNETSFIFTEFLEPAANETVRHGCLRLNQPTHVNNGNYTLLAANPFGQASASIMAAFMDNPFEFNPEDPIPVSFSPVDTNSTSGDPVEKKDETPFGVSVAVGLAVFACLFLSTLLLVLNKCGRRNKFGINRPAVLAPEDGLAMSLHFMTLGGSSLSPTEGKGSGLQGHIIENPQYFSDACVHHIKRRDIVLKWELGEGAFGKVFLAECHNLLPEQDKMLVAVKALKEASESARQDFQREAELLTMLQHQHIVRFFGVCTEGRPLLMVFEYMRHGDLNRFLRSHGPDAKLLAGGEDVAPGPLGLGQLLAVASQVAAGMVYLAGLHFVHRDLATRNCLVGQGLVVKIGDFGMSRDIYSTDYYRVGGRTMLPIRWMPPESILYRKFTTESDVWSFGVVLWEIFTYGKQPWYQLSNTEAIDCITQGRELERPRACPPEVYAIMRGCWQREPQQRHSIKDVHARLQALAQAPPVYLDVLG

IC50 (Ba/F3-TPM3-NTRK1) [nM] | IC50 (TrkA kinase; class symbols) [nM] | IC50 (Ba/F3-ETV6-NTRK3) [nM] | IC50 (TrkA kinase; numeric values) [nM] | t1/2 Human ([1]; 2 μM) | microsomal CLint at 2 μM [1] [µL/min/mg] | half-life at 2 μM ([2]; male, read-out: t1/2 Rat) [h] | CLint Rat ([2]; 2 μM) [μL/min/mg proteins] | microsomal CLint at 2 μM ([3]; male) [µL/min/mg] | t1/2 Mouse ([3]; 2 μM) | SMILES
2.93 | 10 to 50 | 2.45 | – | – | – | – | – | – | – | Fc1ccc(F)c([C@H]2CCCN2c2ccn3ncc(-c4nnc(C5CCNCC5)[nH]4)c3n2)c1 [Compound 22, (R)-5-(2-(2,5-difluorophenyl)pyrrolidin-1-yl)-3-(5-(piperidin-4-yl)-4H-1,2,4-triazol-3-yl)pyrazolo[1,5-a]pyrimidine]
2.05 | 10 to 50 | 2.11 | – | – | – | – | – | – | – | Oc1ccc(-c2nnc(-c3cnn4ccc(N5CCC[C@@H]5c5cc(F)ccc5F)nc34)[nH]2)cc1 [Compound 9, (R)-4-(5-(5-(2-(2,5-difluorophenyl)pyrrolidin-1-yl)pyrazolo[1,5-a]pyrimidin-3-yl)-4H-1,2,4-triazol-3-yl)phenol]
0.98 | ≤ 10 | 1.83 | – | – | – | – | – | – | – | N#Cc1cccc(-c2nnc(-c3cnn4ccc(N5CCC[C@@H]5c5cc(F)ccc5F)nc34)[nH]2)c1 [Compound 13, (R)-3-(5-(5-(2-(2,5-difluorophenyl)pyrrolidin-1-yl)pyrazolo[1,5-a]pyrimidin-3-yl)-4H-1,2,4-triazol-3-yl)benzonitrile]
1.16 | 10 to 50 | 1.2 | – | – | – | – | – | – | – | Fc1ccc(F)c([C@H]2CCCN2c2ccn3ncc(-c4nnc(-c5cnccn5)[nH]4)c3n2)c1 [Compound 10, (R)-5-(2-(2,5-difluorophenyl)pyrrolidin-1-yl)-3-(5-(pyrazin-2-yl)-4H-1,2,4-triazol-3-yl)pyrazolo[1,5-a]pyrimidine]
12.5 | > 50 | 10 | – | – | – | – | – | – | – | Fc1ccc(F)c([C@H]2CCCN2c2ccn3ncc(-c4nnc(-c5ccc(C(F)(F)F)nc5)[nH]4)c3n2)c1 [Compound 14, (R)-5-(2-(2,5-difluorophenyl)pyrrolidin-1-yl)-3-(5-(6-(trifluoromethyl)pyridin-3-yl)-4H-1,2,4-triazol-3-yl)pyrazolo[1,5-a]pyrimidine]
4.67 | – | 7.73 | 2.5 | – | – | – | – | – | – | COC(=O)[C@@H]1CCCN1c1cc2[nH]c(-c3cnn4ccc(N5CCC[C@@H]5c5cc(F)ccc5F)nc34)nc2cc1C#N [Compound 166, methyl (5-cyano-2-(5-((R)-2-(2,5-difluorophenyl)pyrrolidin-1-yl)pyrazolo[1,5-a]pyrimidin-3-yl)-1H-benzo[d]imidazol-6-yl)-L-prolinate]
30.1 | – | 20.8 | 0.3 | – | – | – | – | – | – | O=C(O)c1cc2nc(-c3cnn4ccc(N5CCC[C@@H]5c5cc(F)ccc5F)nc34)[nH]c2cc1F [Compound 141, (R)-2-(5-(2-(2,5-difluorophenyl)pyrrolidin-1-yl)pyrazolo[1,5-a]pyrimidin-3-yl)-6-fluoro-1H-benzo[d]imidazole-5-carboxylic acid]
3.81 | 10 to 50 | 2.83 | – | – | – | – | – | – | – | OC1CCC[C@H](c2nnc(-c3cnn4ccc(N5CCC[C@@H]5c5cc(F)ccc5F)nc34)[nH]2)C1 (stereo partly drawn) [Compound 18, (3S)-3-(5-(5-((R)-2-(2,5-difluorophenyl)pyrrolidin-1-yl)pyrazolo[1,5-a]pyrimidin-3-yl)-4H-1,2,4-triazol-3-yl)cyclohexan-1-ol]
13.2 | – | 19.6 | 0.3 | – | – | – | – | – | – | N#Cc1cc2nc(-c3cnn4ccc(N5CCC[C@@H]5c5cc(F)ccc5F)nc34)[nH]c2cc1N1CCC[C@H]1C(=O)O [Compound 167, (5-cyano-2-(5-((R)-2-(2,5-difluorophenyl)pyrrolidin-1-yl)pyrazolo[1,5-a]pyrimidin-3-yl)-1H-benzo[d]imidazol-6-yl)-L-proline]
4.1 | > 50 | 3.56 | – | ∞ | 0.27 | 10.4 | 0.00 | 2.23 | ∞ | O=C(O)c1nnc(-c2cnn3ccc(N4CCC[C@@H]4c4cc(F)ccc4F)nc23)[nH]1 [Compound 17, (R)-5-(5-(2-(2,5-difluorophenyl)pyrrolidin-1-yl)pyrazolo[1,5-a]pyrimidin-3-yl)-4H-1,2,4-triazole-3-carboxylic acid]
7.71 | > 50 | 2.72 | – | – | – | – | – | – | – | COC(=O)N[C@@H](C)c1nnc(-c2cnn3ccc(N4CCC[C@@H]4c4cc(F)ccc4F)nc23)[nH]1 [Compound 12, methyl ((S)-1-(5-(5-((R)-2-(2,5-difluorophenyl)pyrrolidin-1-yl)pyrazolo[1,5-a]pyrimidin-3-yl)-4H-1,2,4-triazol-3-yl)ethyl)carbamate]
9.18 | > 50 | 4.21 | – | – | – | – | – | – | – | CCOC(=O)c1nnc(-c2cnn3ccc(N4CCC[C@@H]4c4cc(F)ccc4F)nc23)[nH]1 [Compound 16, ethyl (R)-5-(5-(2-(2,5-difluorophenyl)pyrrolidin-1-yl)pyrazolo[1,5-a]pyrimidin-3-yl)-4H-1,2,4-triazole-3-carboxylate]
